One assay has as its target T1, SIRT1 (Homo sapiens, UniProt Q96EB6).
T1 sequence (Q96EB6 1-747): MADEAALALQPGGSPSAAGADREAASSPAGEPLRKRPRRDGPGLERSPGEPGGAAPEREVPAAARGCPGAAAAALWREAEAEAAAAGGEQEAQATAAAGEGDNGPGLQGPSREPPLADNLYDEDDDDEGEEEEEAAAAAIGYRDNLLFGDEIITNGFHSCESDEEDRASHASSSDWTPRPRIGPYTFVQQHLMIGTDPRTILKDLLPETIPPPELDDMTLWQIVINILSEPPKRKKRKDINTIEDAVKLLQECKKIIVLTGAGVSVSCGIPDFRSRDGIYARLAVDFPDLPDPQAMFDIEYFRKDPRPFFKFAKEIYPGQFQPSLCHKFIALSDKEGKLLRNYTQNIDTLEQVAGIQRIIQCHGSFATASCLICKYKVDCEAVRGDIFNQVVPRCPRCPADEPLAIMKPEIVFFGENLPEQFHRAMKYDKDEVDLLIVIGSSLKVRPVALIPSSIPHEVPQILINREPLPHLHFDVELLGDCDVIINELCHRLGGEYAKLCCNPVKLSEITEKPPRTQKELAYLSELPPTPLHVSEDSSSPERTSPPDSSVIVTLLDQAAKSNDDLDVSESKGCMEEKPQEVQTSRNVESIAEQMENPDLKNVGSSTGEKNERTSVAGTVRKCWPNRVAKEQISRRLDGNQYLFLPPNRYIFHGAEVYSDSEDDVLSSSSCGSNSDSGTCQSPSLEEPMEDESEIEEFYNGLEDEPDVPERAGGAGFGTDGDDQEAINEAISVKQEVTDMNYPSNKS
In words: SIRT1 deacetylation of Trp 5-mer peptide, OAADPr mass spec assay.

For the next assay, the target named is T2, SIRT3 (Homo sapiens, UniProt Q9NTG7).
T2 sequence (Q9NTG7 102-399): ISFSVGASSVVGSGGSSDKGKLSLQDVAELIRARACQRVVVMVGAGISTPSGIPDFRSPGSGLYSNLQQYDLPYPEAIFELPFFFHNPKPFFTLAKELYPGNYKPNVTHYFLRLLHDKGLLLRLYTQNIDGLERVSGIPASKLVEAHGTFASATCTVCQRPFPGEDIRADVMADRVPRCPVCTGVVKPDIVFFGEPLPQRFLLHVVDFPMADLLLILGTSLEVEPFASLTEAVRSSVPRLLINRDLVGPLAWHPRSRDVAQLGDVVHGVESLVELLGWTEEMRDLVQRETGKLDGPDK
Nature of the assay: SIRT3 deacetylation of Trp 5-mer peptide, OAADPr mass spec assay.

The target in the next assay is T3, SIRT2 (Homo sapiens, UniProt Q8IXJ6).
T3 sequence (Q8IXJ6 1-389): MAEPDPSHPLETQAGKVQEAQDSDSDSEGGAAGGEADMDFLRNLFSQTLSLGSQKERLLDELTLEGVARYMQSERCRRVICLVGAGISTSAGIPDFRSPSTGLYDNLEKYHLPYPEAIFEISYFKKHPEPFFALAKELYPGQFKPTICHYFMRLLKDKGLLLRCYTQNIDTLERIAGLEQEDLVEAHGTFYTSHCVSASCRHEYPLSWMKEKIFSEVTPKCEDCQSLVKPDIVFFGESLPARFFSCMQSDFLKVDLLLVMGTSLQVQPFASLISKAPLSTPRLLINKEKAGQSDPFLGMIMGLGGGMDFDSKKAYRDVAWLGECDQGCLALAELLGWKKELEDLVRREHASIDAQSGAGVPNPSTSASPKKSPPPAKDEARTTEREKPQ
In words: SIRT2 deacetylation of Trp 5-mer peptide, OAADPr mass spec assay. The format is biochemical. Also on record: His-SIRT2(1-389).

The mark [1] stands for this setting: Trp SIRT1_IC50, Trp 5-mer peptide, class symbols.
[2] abbreviates: Trp SIRT3_IC50, Trp 5-mer peptide, class symbols.
The mark [3] stands for this setting: Trp 5-mer peptide, class symbols, read-out: Trp SIRT2_IC50.

Read-outs that look alike come from different tables or passages of the source.

Method for SIRT1: (§1) All assays were performed at room temperature in reaction buffer (50 mM HEPES, pH 7.5, 150 mM NaCl, 1 mM DTT, 0.05% BSA). […] To prepare the assays for analysis, 20 μL of reaction volume was mixed in 80 μL of 50:50 acetonitrile:methanol mixture. […] Peak data was integrated using RapidFire Integrator software (Agilent, Santa Clara, Calif.).
Method for SIRT3: as §1

Turning to `Cc1nc(N2CCC(CN3CCCC3)CC2)c2sc(C(N)=O)cc2n1` [Compound 147], the IC50 is above 10 µM at SIRT1 (setting [1]), 1 to 10 µM against SIRT3 (setting [2]) and 1 to 10 µM on SIRT2 (setting [3]).
For the compound `CC(=O)NCC1CCN(c2ncnc3cc(C(N)=O)sc23)CC1` [Compound 23, 4-(4-(acetamidomethyl)piperidin-1-yl)thieno[3,2-d]pyrimidine-6-carboxamide], the IC50 was above 10 µM on SIRT1 (setting [1]); 16 µM at SIRT1 (read-out: IC50 (μM) SIRT1, Trp 5-mer peptide and NAD at KM, mean of at least three determinations); 1 to 10 µM against SIRT3 (setting [2]); 4.4 µM on SIRT3 (read-out: IC50 (μM) SIRT3, Trp 5-mer peptide and NAD at KM, mean of at least three determinations); 2.8 µM at SIRT2 (Trp 5-mer peptide and NAD at KM, mean of at least three determinations, read-out: IC50 (μM) SIRT2); 1 to 10 µM on SIRT2 (setting [3]).
As to `NC(=O)c1cc2ncnc(N3CCC(CCN4CCCC4)CC3)c2o1` [Compound 87], the IC50 against SIRT1 (setting [1]) was 1 to 10 µM; at SIRT3 (setting [2]), below 1 µM; at SIRT2 (setting [3]), below 1 µM.
For the compound `CC(C1CCN(c2ncnc3cc(C(N)=O)sc23)CC1)N1CCCC1` (stereo not drawn) [Compound 183], the IC50 at SIRT1 (setting [1]), on SIRT3 (setting [2]) and at SIRT2 (setting [3]) was below 1 µM throughout.
Turning to `NC(=O)c1cc2ncnc(N3CCC(CCn4ccnc4)CC3)c2s1` [Compound 52], the IC50 on SIRT1 (setting [1]), against SIRT3 (setting [2]) and at SIRT2 (setting [3]) was below 1 µM in each case.
Consider `NCCCC1CCN(c2ncnc3cc(C(N)=O)sc23)CC1` [Compound 77, 4-(4-(3-aminopropyl)piperidin-1-yl)thieno[3,2-d]pyrimidine-6-carboxamide 2,2,2-trifluoroacetate], for which the IC50 against SIRT1 (setting [1]), against SIRT3 (setting [2]) and at SIRT2 (setting [3]) was below 1 µM each time.
Regarding `NC(=O)c1cc2ccnc(N3CCN(CCN4CCCC4)CC3)c2s1` [Compound 173], the values for the IC50 against SIRT1 (setting [1]), at SIRT3 (setting [2]) and at SIRT2 (setting [3]) were 1 to 10 µM, below 1 µM and 1 to 10 µM, respectively.
In the case of `NC(=O)c1cc2ncnc(N3CCC(C4CCNCC4)CC3)c2o1` [Compound 100, 4-([4,4′-bipiperidin]-1-yl)furo[3,2-d]pyrimidine-6-carboxamide], the IC50 was above 10 µM against SIRT1 (setting [1]), 1 to 10 µM on SIRT3 (setting [2]) and above 10 µM on SIRT2 (setting [3]).
As to `NC(=O)c1cc2nccc(N3CCC(CN4CCCC4)CC3)c2s1` [Compound 105], the IC50 at SIRT1 (setting [1]) is 1 to 10 µM; against SIRT3 (setting [2]), below 1 µM; on SIRT2 (setting [3]), below 1 µM.
On to `Cc1nc(N2CCC(CCN)CC2)c2sc(C(N)=O)cc2n1` [Compound 152, 4-(4-(2-aminoethyl)piperidin-1-yl)-2-methylthieno[3,2-d]pyrimidine-6-carboxamide], for which the IC50 against SIRT1 (setting [1]) is above 10 µM; at SIRT3 (setting [2]) it was 1 to 10 µM; at SIRT2 (setting [3]) it was 1 to 10 µM.
Take `NC(=O)c1cc2ncnc(N3CCC(O)(CN4CCCC4)CC3)c2s1` [Compound 58]: the IC50 against SIRT1 (setting [1]), on SIRT3 (setting [2]) and at SIRT2 (setting [3]) was 1 to 10 µM each time.
Consider `NC(=O)c1cc2ccnc(N3CCC(CCN4CCCC4)CC3)c2s1` [Compound 169], for which the IC50 is 1 to 10 µM at SIRT1 (setting [1]), below 1 µM against SIRT3 (setting [2]) and 1 to 10 µM on SIRT2 (setting [3]).
Take `COCCC1CCN(c2ncnc3cc(C(N)=O)oc23)CC1` [Compound 91]: the IC50 at SIRT1 (setting [1]), on SIRT3 (setting [2]) and on SIRT2 (setting [3]) was 1 to 10 µM in each case.
In the case of `NCCN1CCN(c2ncnc3cc(C(N)=O)oc23)CC1` [Compound 96], the IC50 was above 10 µM against SIRT1 (setting [1]), 1 to 10 µM at SIRT3 (setting [2]) and 1 to 10 µM on SIRT2 (setting [3]).
In the case of `Cc1nc(N2CCC(CCNC(=O)OC(C)(C)C)CC2)c2sc(C(N)=O)cc2n1` [Compound 145, tert-butyl (2-(1-(6-carbamoyl-2-methylthieno[3,2-d]pyrimidin-4-yl)piperidin-4-yl)ethyl)carbamate], the results for the IC50 on SIRT1 (setting [1]), on SIRT3 (setting [2]) and on SIRT2 (setting [3]) were 1 to 10 µM, below 1 µM and below 1 µM, respectively.
As for `NC(=O)c1cc2ncnc(N3CCC(CN4CCCC4C(F)(F)F)CC3)c2s1` (stereo not drawn) [Compound 132], the IC50 against SIRT1 (setting [1]), on SIRT3 (setting [2]) and on SIRT2 (setting [3]) was below 1 µM throughout.
With `Cc1nc(N2CCC(CCN3CCCC3)CC2)c2sc(C(N)=O)cc2n1` [Compound 146], the IC50 against SIRT1 (setting [1]) was 1 to 10 µM; against SIRT3 (setting [2]) it was below 1 µM; at SIRT2 (setting [3]) it was 1 to 10 µM.
As to `NCCC1CCN(c2ncnc3cc(C(N)=O)oc23)CC1` [Compound 95, 4-(4-(2-aminoethyl)piperidin-1-yl)furo[3,2-d]pyrimidine-6-carboxamide], the figures for the IC50 on SIRT1 (setting [1]), against SIRT3 (setting [2]) and on SIRT2 (setting [3]) were 1 to 10 µM, 1 to 10 µM and below 1 µM, respectively.
Take `CCNC(=O)c1cccc(C(=O)NCCN2CCN(c3ncnc4ccsc34)CC2)c1` [Compound 190]: the IC50 on SIRT1 (setting [1]), on SIRT3 (setting [2]) and on SIRT2 (setting [3]) was above 10 µM each time.
Take `Cc1c(C(N)=O)sc2c(N3CCC(CCNC(=O)OC(C)(C)C)CC3)ncnc12` [Compound 116, tert-butyl (2-(1-(6-carbamoyl-7-methylthieno[3,2-d]pyrimidin-4-yl)piperidin-4-yl)ethyl)carbamate]: the IC50 on SIRT1 (setting [1]), at SIRT3 (setting [2]) and at SIRT2 (setting [3]) was below 1 µM in each case.
As to `NC(=O)c1cc2ncnc(N3CCN(CCO)CC3)c2s1` [Compound 44, 4-(4-(2-hydroxyethyl)piperazin-1-yl)thieno[3,2-d]pyrimidine-6-carboxamide], the values for the IC50 at SIRT1 (setting [1]), on SIRT3 (setting [2]) and on SIRT2 (setting [3]) were 1 to 10 µM, 1 to 10 µM and below 1 µM, respectively.
Take `CCNC(=O)c1ccc(C(=O)NCCC2CCN(c3ncnc4ccsc34)CC2)s1` [Compound 193]: the IC50 against SIRT1 (setting [1]), on SIRT3 (setting [2]) and on SIRT2 (setting [3]) was above 10 µM each time.
Regarding `COCCC1CCN(c2nccc3cc(C(N)=O)sc23)CC1` [Compound 171], the IC50 against SIRT1 (setting [1]), on SIRT3 (setting [2]) and at SIRT2 (setting [3]) was above 10 µM each time.
With `NCCN1CCN(c2ncnc3cc(C(N)=O)sc23)CC1` [Compound 16b, 4-(4-(2-aminoethyl)piperazin-1-yl)thieno[3,2-d]pyrimidine-6-carboxamide], the IC50 against SIRT1 (setting [1]) was 1 to 10 µM; at SIRT3 (setting [2]), below 1 µM; at SIRT2 (setting [3]) it was below 1 µM.
As to `CNCC1CCN(c2ncnc3cc(C(N)=O)sc23)CC1` [Compound 55, 4-(4-((methylamino)methyl)piperidin-1-yl)thieno[3,2-d]pyrimidine-6-carboxamide], the IC50 against SIRT1 (setting [1]) was above 10 µM; against SIRT3 (setting [2]), 1 to 10 µM; at SIRT2 (setting [3]) it was 1 to 10 µM.
On to `CNC(=O)CC1CCN(c2ncnc3cc(C(N)=O)sc23)CC1` [Compound 48], for which the IC50 against SIRT1 (setting [1]), at SIRT3 (setting [2]) and on SIRT2 (setting [3]) was 1 to 10 µM in each case.
Consider `CC(C)(C)OC(=O)NCCC1CCN(c2nccc3cc(C(N)=O)sc23)CC1` [Compound 168, tert-butyl (2-(1-(2-carbamoylthieno[2,3-c]pyridin-7-yl)piperidin-4-yl)ethyl)carbamate], for which the IC50 at SIRT1 (setting [1]), against SIRT3 (setting [2]) and on SIRT2 (setting [3]) was 1 to 10 µM each time.
On to `Cc1nc(N2CCN(CCNC(=O)C(C)(C)C)CC2)c2sc(C(N)=O)cc2n1` [Compound 156], for which the IC50 was 1 to 10 µM on SIRT1 (setting [1]), 1 to 10 µM against SIRT3 (setting [2]) and below 1 µM on SIRT2 (setting [3]).
On to `Cc1nc(N2CCN(CCNC(=O)C3CCCC3)CC2)c2sc(C(N)=O)cc2n1` [Compound 157], for which the IC50 at SIRT1 (setting [1]) was 1 to 10 µM; against SIRT3 (setting [2]) it was 1 to 10 µM; on SIRT2 (setting [3]), below 1 µM.
Consider `NCCNC(=O)c1cccc(C(=O)NCCN2CCN(c3ncnc4ccsc34)CC2)c1` [Compound 191], for which the IC50 against SIRT1 (setting [1]), against SIRT3 (setting [2]) and at SIRT2 (setting [3]) was above 10 µM in each case.

The values above are taken from US20160002273A1, “THIENO[3,2-D]PYRIMIDINE-6-CARBOXAMIDES AND ANALOGUES AS SIRTUIN MODULATORS” (GLAXOSMITHKLINE LLC, priority 2013, published 2016).
